Source: paper PMC9954146, “Anti-Leukaemic Activity of Rilpivirine Is Mediated by Aurora A Kinase Inhibition” (Cancers, 2023)
Like-named read-outs stand apart in the source and are kept apart here.

Tests used:
[1] = test system: leukaemia cell lines (HL-60, NB4, K-562, and U-937); test: Resazurin cell viability assay, four cell lines; format: cell-based; details: Homo sapiens; after 24, 48, or 72 h of treatment; read-out: GI50 values, range over all cell lines
Protocol: (§1) Cell viability was determined by a resazurin-based assay as described previously. Briefly, 5 × 10^3 cells/well were seeded into 96-well plates (Corning Inc., Corning, NY, USA) in 180 µL of RPMI 1640 medium and incubated overnight at 37 °C with 5% CO2. Next day, cells were treated with rilpivirine after serially diluted (1:2 dilution for final concentrations ranging from 0.625 µM to 40 µM) or DMSO (0.1%) for specified time periods (24, 48, or 72 h). At the end of the treatment period, 20 µL of resazurin (0.1 mg/mL in PBS) was added per well and incubated for further 4 h. Fluorescence intensities were recorded at 570 nm (excitation)/585 nm (emission) using an EnVision® multilabel plate reader (PerkinElmer, MA, USA). Drug concentrations required for cell viability reduction by 50% (GI50) compared with untreated (DMSO vehicle-treated only) control were determined by a non-linear regression model using GraphPad Prism software version 7.02 (La Jolla, CA, USA).

[2] = Pharmacokinetic analysis in mice; format: in vivo, mouse
Protocol: A pharmacokinetic study was performed as described previously. The pharmacokinetics of rilpivirine was determined after administration of single 50 mg/kg oral (PO) and 2 mg/kg intravenous (IV) doses to male BALB/c hairy mice (n = 6 per route). Briefly, three blood samples were collected from both cheeks (left and right) and the heart of each mouse. A validated liquid chromatography-mass spectrometry/mass spectrometry (LC-MS/MS) technique was used to measure the drug concentrations in the plasma. Pharmacokinetic parameters were estimated using compartmental models (Phoenix, Certara, NJ, USA) and analysis was performed with WinNonlin 6.4 software (Princeton, NJ, USA).

[3] = Tolerated dose in non-tumour-bearing mice; format: in vivo; details: up to an oral dose of 300 mg/kg, once daily for seven days; non-tumour-bearing female BALB/c nude mice
Protocol: Animal experiments were performed as reported previously. All animal experiments were conducted following the institutional ethical principles of animal care and approved by the University of South Australia Animal Ethics Committee.

U-937 cells = test: Resazurin cell viability assay; format: cell-based; details: Homo sapiens
Protocol: as §1

NB4 cells = test: Resazurin cell viability assay; format: cell-based; details: Homo sapiens
Protocol: as §1

PIM1 [4] = target: PIM1; design: method as in PMID 36297298; details: apparent Ki from IC50 and Km (ATP); cited from earlier work
YES = target: T1, YES (Homo sapiens, UniProt P07947); test: Radioisotope-based kinase assay (Ki); format: biochemical; details: apparent Ki from IC50 and Km (ATP)
T1 construct: purchased Reaction Biology Corporation (assay service)
T1 sequence (P07947 whole entry): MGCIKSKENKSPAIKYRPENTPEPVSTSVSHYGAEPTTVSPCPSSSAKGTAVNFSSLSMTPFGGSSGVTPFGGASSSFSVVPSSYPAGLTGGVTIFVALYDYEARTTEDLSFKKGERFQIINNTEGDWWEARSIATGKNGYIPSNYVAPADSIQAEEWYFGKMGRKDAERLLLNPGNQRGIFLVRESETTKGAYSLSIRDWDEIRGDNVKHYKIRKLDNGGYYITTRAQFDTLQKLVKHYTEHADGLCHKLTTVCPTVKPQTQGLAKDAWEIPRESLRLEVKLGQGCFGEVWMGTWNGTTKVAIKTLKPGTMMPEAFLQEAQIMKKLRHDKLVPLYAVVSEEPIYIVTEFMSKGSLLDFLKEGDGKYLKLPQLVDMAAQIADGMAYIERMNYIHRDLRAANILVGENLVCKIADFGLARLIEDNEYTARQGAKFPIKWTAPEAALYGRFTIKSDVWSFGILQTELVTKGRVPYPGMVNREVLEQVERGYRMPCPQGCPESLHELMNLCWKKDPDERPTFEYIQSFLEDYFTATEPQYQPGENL
Protocol: (§2) Kinome-wide selectivity of rilpivirine was measured using the kinase screening and profiling service of Eurofins Scientific (Le bois l’Evêque 86600. Celle-Lévescault, France) and Ki values were determined using radioisotope-based assays by Reaction Biology Corporation (Malvern, PA, USA). The experimental details of Eurofin Scientific and Reaction Biology services for relevant assays are available at https://www.eurofinsdiscoveryservices.com/services/in-Vitro-assays/kinases/kinase-profiler (accessed on 7 July 2021) and https://www.reactionbiology.com (accessed on 7 July 2021), respectively. Ki values were estimated from the corresponding IC50 values using the Cheng–Prusoff equation [21] and the Km (ATP) of individual kinase was used for IC50 determination.

PIM1 [5] = test: Radioisotope-based kinase assay (Ki); format: biochemical; details: PIM1 vs Aurora A
Protocol: as §2

LYN = target: T2, LYN (Homo sapiens, UniProt P07948); test: Radioisotope-based kinase assay (Ki); format: biochemical; details: apparent Ki from IC50 and Km (ATP)
T2 construct: purchased Reaction Biology Corporation (assay service)
T2 sequence (P07948 whole entry): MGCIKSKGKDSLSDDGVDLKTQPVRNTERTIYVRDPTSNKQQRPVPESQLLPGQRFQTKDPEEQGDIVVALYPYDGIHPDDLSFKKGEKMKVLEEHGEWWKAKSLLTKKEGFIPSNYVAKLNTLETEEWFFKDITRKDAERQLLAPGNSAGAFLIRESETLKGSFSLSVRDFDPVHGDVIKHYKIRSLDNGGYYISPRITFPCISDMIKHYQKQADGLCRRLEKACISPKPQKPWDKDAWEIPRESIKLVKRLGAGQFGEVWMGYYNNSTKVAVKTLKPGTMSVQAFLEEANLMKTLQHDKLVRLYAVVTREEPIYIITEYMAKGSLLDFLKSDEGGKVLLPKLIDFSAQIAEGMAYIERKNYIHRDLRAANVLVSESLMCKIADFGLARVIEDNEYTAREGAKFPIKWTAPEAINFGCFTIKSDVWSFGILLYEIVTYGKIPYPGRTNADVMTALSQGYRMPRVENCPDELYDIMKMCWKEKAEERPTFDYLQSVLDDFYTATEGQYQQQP
Protocol: as §2

[6] = test system: Aurora A kinase signalling pathway proteins in HL-60 cells; test: Western blotting, HL-60 time course and combination; format: cell-based, human; details: 10 µM, time course
Protocol: Western blotting was performed following a method described previously. Briefly, 8 × 10^5 to 1 × 10^6 cells were seeded in petri dishes with 8 to 10 mL of culture medium and incubated overnight at 37 °C, 5% CO2. Then, the cells were treated with the test compounds and further incubated for the specified time point. Cells were then lysed using a lysis buffer containing protease inhibitors, and proteins were extracted by centrifugation. Protein concentrations were determined by using a Bio-Rad DC^TM protein assay kit (Bio-Rad Laboratories, Hercules, CA, USA). A total of 20–30 μg of proteins was loaded onto each well of 4–20% polyacrylamide gels for electrophoresis. Once electrophoresis was completed, gels were placed on pre-soaked polyvinylidene difluoride membranes and blocked with 10% skimmed milk in 1 × Tris-buffered saline and Tween (TBST). Then, the blots were incubated with primary antibodies, followed by washing with TBST for 4 × 20 min. After this, the blots were incubated with the appropriate horseradish peroxidase (HRP)-conjugated secondary antibody, followed by washing again with TBST for 4 × 20 min. The protein bands were then detected with either ECL prime (Amersham^TM ECL^TM prime Western blotting detection reagent) or ECL select (Amersham^TM ECL^TM select Western blotting detection reagent) depending on the abundance of the protein of interest. The blots were imaged using the Bio-Rad ChemiDoc^TM MP imaging system (Bio-Rad Laboratories, Hercules, CA, USA). All the primary and secondary antibodies used in this study were purchased from Cell Signaling Technology (Danvers, MA, USA).

Aurora A = target: Aurora A; design: method as in PMID 36297298; details: apparent Ki from IC50 and Km (ATP), cited from earlier work
[7] = male, BALB/c hairy, mouse, plasma, IV, 2 mg/kg single dose
[8] = male, BALB/c hairy, mouse, plasma, PO, 50 mg/kg single dose

Compound: Cc1cc(/C=C/C#N)cc(C)c1Nc1ccnc(Nc2ccc(C#N)cc2)n1 [rilpivirine, (E)-4-((4-((4-(2-cyanoethenyl)-2,6-dimethylphenyl)amino)pyrimidin-2-yl)amino)benzonitrile]
- GI50 [1]: 4.12 to 12.4 µM
- Cmax ([2]; IV, 2 mg/kg single dose, 2 mg/kg): > 20 µM
- Cmax ([2]; PO, 50 mg/kg single dose, 50 mg/kg): > 20 µM
- AUC(0-t) [2, 7]: 20 µM·h
- Tmax [2, 7]: 0.033 h
- half-life [2, 7]: 1.3 h
- AUC(0-t) [2, 8]: 247 µM·h
- Tmax [2, 8]: 1.5 h
- bioavailability [2, 8]: 49.1%
- half-life [2, 8]: 4.91 h
- Cmax ([2]; male, BALB/c hairy, mouse, plasma, iv, 2 mg/kg, 2 mg/kg single dose): 22.4 µM
- Cmax ([2]; male, BALB/c hairy, mouse, plasma, po, 50 mg/kg, 50 mg/kg single dose): 33.3 µM
- body weight and clinical signs of toxicity [3]: did not cause any significant changes in body weight (i.e., >15%) or show overt clinical signs of toxicity
- GI50 (U-937 cells; U-937, 24 h): 12.1 ± 2.97 µM
- GI50 (U-937 cells; U-937, 48 h): 5.77 ± 1 µM
- GI50 (U-937 cells; U-937, 72 h): 4.79 ± 0.17 µM
- GI50 (NB4 cells; NB-4, 24 h): 8.94 ± 1.02 µM
- GI50 (NB4 cells; NB-4, 48 h): 6.54 ± 0.83 µM
- GI50 (NB4 cells; NB-4, 72 h): 4.6 ± 0.35 µM
- Ki (PIM1 [4]): 0.52 µM
- Ki (YES): 1.57 µM
- potency against PIM1 relative to Aurora A kinase (PIM1 [5]): four-and-a-half-fold less potent
- Ki (LYN): 0.93 µM
- time from which PARP cleavage was detected [6]: ≥ 12 h
- time of maximum induction of phospho-Histone H3 (Ser10) [6]: 18 h
- time until inhibition of Aurora-A autophosphorylation was evident [6]: ≤ 6 h
- Ki (Aurora A): ~0.116 µM
- Ki (Aurora A; listed as Rilpivirine): 0.12 µM
